Converted amounts (≈) assume the structure as drawn.

In this assay the test system is P388. Description: Cytotoxicity against mouse P388 cells. It counts as functional, cell-based.
The IC50 is the concentration needed to halve the response being measured. A lower IC50 goes with greater potency. Turning to `CC(C)=CCC/C(C)=C/CC/C(C)=C/CC/C(C)=C/Cc1cc(O)c(C)cc1O`, it took 2 µg/mL (≈ 5.04 µM) to reach half-maximal inhibition (IC50).
The value for `CC(=O)O[C@@H]1CO[C@@H](Oc2cc(C/C=C(\C)CC/C=C(\C)CC/C=C(\C)CCC=C(C)C)c(O)cc2C)[C@@H](O)[C@@H]1O` [NEPHTHOSIDE MANOACETATE] was 2 µg/mL (≈ 3.5 µM).
The value for `CC(C)=CCC/C(C)=C/CC/C(C)=C/CC/C(C)=C/Cc1cc(O[C@@H]2OC[C@@H](O)[C@@H](O)[C@@H]2O)c(C)cc1O` [NEPHTHOSIDE] was 2 µg/mL (≈ 3.78 µM).
The value for `CC(=O)OCC(O)(C(Cc1cc(O)c(C)cc1O)OC(C)=O)C12CCC(C)(CC(/C=C(\C)CCC=C(C)C)O1)O2` (centres undefined) [SINDUROL] was 1.2 µg/mL (≈ 2.14 µM).
